“Also recorded” adds a separate entry of the source.
Legend:
[1] = test system: primary cell line derived from one of the redhead (BRaf^V600E-Mc1r^e/e) melanomas; conditions: redhead-derived melanoma cells
Protocol: (§1) Tumor cells were digested overnight in 10 mg/ml collagenase and 1 mg/ml hyaluronidase. Initially tumor cells were grown in RPMI media with HEPES and 20% serum. Subsequently tumor cells were grown in DMEM media with 10% serum.

[2] = test system: melanocytic markers (Mitf, Dct, Tyrp1 mRNA); assay: Quantitative RT-PCR of melanocytic markers in primary cultured tumor cells; type: cell-based, mouse; conditions: 2 μM PLX4720, mRNA normalized to 18s rRNA and 0 h timepoint
Protocol: RNA was harvested from primary cultured tumor cells treated for varying times with forskolin or PLX4720 using the RNeasy Plus mini kit (QIAGEN). mRNA expression of melanocytic markers was determined using intron-spanning mouse-specific primers with Kapa SYBR FAST qPCR master mix (KAPA BIOSYSTEMS). Expression was normalized to 18s rRNA and 0 hour time-points.

redhead-BRaf^CA melanoma = assay: In vivo PLX4720 study, mouse chow containing PLX4720; conditions: 4 weeks of mouse chow containing 2% PLX4720 by weight, n=3
Protocol: At 6-10 weeks of age the dorsal fur was trimmed using animal shears with a 0.25 mm head and the mice were treated topically with 20 mg/ml tamoxifen for 5 consecutive days. […] For in vivo PLX4720 studies, animals were given ad libitum mouse chow containing 2% PLX4720 by weight or control chow acquired from Plexxikon Inc. All studies and procedures involving animal subjects were approved by the Institutional Animal Care and Use Committees of Massachusetts General Hospital and Dana-Farber Harvard Cancer Center and were conducted strictly in accordance with the approved animal handling protocol.

[3] = test system: primary cell line derived from one of the redhead (BRaf^V600E-Mc1r^e/e) melanomas; assay: cells; conditions: Mus musculus, 72 h, read-out: GI50, melanoma cell proliferation
Protocol: as §1

Compound	melanoma cell proliferation in vitro [1]	expression of melanocytic markers [2]	melanoma growth in vivo (redhead-BRaf^CA melanoma)	GI50 [3]
CCCS(=O)(=O)Nc1ccc(F)c(C(=O)c2c[nH]c3ncc(Cl)cc23)c1F [PLX4720]	prevented melanoma cell proliferation in vitro	upregulates	blocked tumor cell growth in vivo; also recorded: blocks melanoma growth in vivo	500 nM
N#CC(=C(/N)Sc1ccccc1N)/C(C#N)=C(\N)Sc1ccccc1N [U0126]	prevented melanoma cell proliferation in vitro			2000 nM

— US20150245596A1, “MELANOCORTIN RECEPTOR MUTANT MOUSE AND USES THEREOF” (THE GENERAL HOSPITAL CORPORATION, priority 2012, published 2015)
